# According to the supplement of paper PMC10307832:
# Experiments:
# Assay in all cases: relative viability (nuclei count vs DMSO), 5 days (fraction); higher = more cells survive
# Adavosertib = compound: C=CCn1c(=O)c2cnc(Nc3ccc(N4CCN(C)CC4)cc3)nc2n1-c1cccc(C(C)(C)O)n1 [Adavosertib]
# Procedure, shortened: (§1)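 Viability was defined as treated-well nuclei divided by vehicle-well nuclei, with the median taken over replicate plates. Cells from lung cancer lines sat overnight at 37 °C in 1536-well plates, received five √10-spaced library-drug doses by pinning on vehicle-anchored plates, and grew 5 days without medium change before one-step fixation, permeabilisation and Hoechst staining, 4× imaging and MetaXpress nuclear counts. Only plates with control CV under 25% and at least one doubling were kept.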
# Nelarabine = compound: COc1nc(N)nc2c1ncn2[C@@H]1O[C@H](CO)[C@@H](O)[C@@H]1O [Nelarabine]
# Procedure, shortened: as §1
# Nelarabine + Pemetrexed = compound: COc1nc(N)nc2c1ncn2[C@@H]1O[C@H](CO)[C@@H](O)[C@@H]1O [Nelarabine] + Nc1nc2[nH]cc(CCc3ccc(C(=O)N[C@@H](CCC(=O)O)C(=O)O)cc3)c2c(=O)[nH]1 [Pemetrexed] (partner 0.2 µM)
# Procedure, shortened: (§2)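 Relative viability divides the nuclei count in treated wells by that in vehicle wells. Lung cancer cell lines were seeded in 1536-well plates, dosed by pin tool the next day, and fixed and stained after 5 days in one step with final 0.05% Triton X-100, 1% formaldehyde and 1 ug/ml Hoechst. Dosing was a single drug or a fixed anchor-drug dose plus five library-drug doses (not always all listed) in √10 steps, and values are medians of duplicate plates imaged at 4×.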
# Adavosertib + OSI-027 = compound: C=CCn1c(=O)c2cnc(Nc3ccc(N4CCN(C)CC4)cc3)nc2n1-c1cccc(C(C)(C)O)n1 [Adavosertib] + COc1cccc2cc(-c3nc([C@H]4CC[C@H](C(=O)O)CC4)n4ncnc(N)c34)[nH]c12 [OSI-027] (partner 0.5 µM)
# Procedure, shortened: as §2
cell line,measurement,setting,value
SK-MES-1,relative viability,Adavosertib; 0.01 µM,0.989
same,relative viability,Adavosertib; 0.03162 µM,1.01
same,relative viability,Adavosertib; 0.1 µM,0.931
same,relative viability,Adavosertib; 0.3162 µM,0.528
same,relative viability,Nelarabine; 0.01 µM,1.15
same,relative viability,Nelarabine; 0.03162 µM,1.09
same,relative viability,Nelarabine; 0.1 µM,1.01
same,relative viability,Nelarabine; 0.3162 µM,1.09
same,relative viability,Nelarabine; 1 µM,1.04
same,relative viability,Nelarabine + Pemetrexed; first compound 0.01 µM,1.17
same,relative viability,Nelarabine + Pemetrexed; first compound 0.03162 µM,0.951
same,relative viability,Nelarabine + Pemetrexed; first compound 0.1 µM,0.957
same,relative viability,Nelarabine + Pemetrexed; first compound 0.3162 µM,1.03
same,relative viability,Nelarabine + Pemetrexed; first compound 1 µM,1.07
same,relative viability,Adavosertib + OSI-027; first compound 0.01 µM,0.681
same,relative viability,Adavosertib + OSI-027; first compound 0.03162 µM,0.576
same,relative viability,Adavosertib + OSI-027; first compound 0.1 µM,0.428
same,relative viability,Adavosertib + OSI-027; first compound 0.3162 µM,0.198
NCI-H1755,relative viability,Adavosertib; 0.01 µM,1.02
same,relative viability,Adavosertib; 0.03162 µM,0.998
same,relative viability,Adavosertib; 0.1 µM,0.958
same,relative viability,Adavosertib; 0.3162 µM,0.86
same,relative viability,Nelarabine; 0.01 µM,1.01
same,relative viability,Nelarabine; 0.03162 µM,0.948
same,relative viability,Nelarabine; 0.1 µM,0.988
same,relative viability,Nelarabine; 0.3162 µM,1.1
same,relative viability,Nelarabine; 1 µM,1.1
same,relative viability,Nelarabine + Pemetrexed; first compound 0.01 µM,0.654
same,relative viability,Nelarabine + Pemetrexed; first compound 0.03162 µM,0.377
same,relative viability,Nelarabine + Pemetrexed; first compound 0.1 µM,0.363
same,relative viability,Nelarabine + Pemetrexed; first compound 0.3162 µM,0.501
same,relative viability,Nelarabine + Pemetrexed; first compound 1 µM,0.451
same,relative viability,Adavosertib + OSI-027; first compound 0.01 µM,0.662
same,relative viability,Adavosertib + OSI-027; first compound 0.03162 µM,0.731
same,relative viability,Adavosertib + OSI-027; first compound 0.1 µM,0.754
same,relative viability,Adavosertib + OSI-027; first compound 0.3162 µM,0.666
NCI-H2126,relative viability,Adavosertib; 0.01 µM,1.01
same,relative viability,Adavosertib; 0.03162 µM,1.04
same,relative viability,Adavosertib; 0.1 µM,0.969
same,relative viability,Adavosertib; 0.3162 µM,1.07
same,relative viability,Nelarabine; 0.01 µM,1.08
same,relative viability,Nelarabine; 0.03162 µM,0.952
same,relative viability,Nelarabine; 0.1 µM,0.961
same,relative viability,Nelarabine; 0.3162 µM,1.03
same,relative viability,Nelarabine; 1 µM,0.988
same,relative viability,Nelarabine + Pemetrexed; first compound 0.01 µM,0.879
same,relative viability,Nelarabine + Pemetrexed; first compound 0.03162 µM,0.757
same,relative viability,Nelarabine + Pemetrexed; first compound 0.1 µM,0.692
same,relative viability,Nelarabine + Pemetrexed; first compound 0.3162 µM,0.765
same,relative viability,Nelarabine + Pemetrexed; first compound 1 µM,0.807
same,relative viability,Adavosertib + OSI-027; first compound 0.01 µM,0.569
same,relative viability,Adavosertib + OSI-027; first compound 0.03162 µM,0.697
same,relative viability,Adavosertib + OSI-027; first compound 0.1 µM,0.769
same,relative viability,Adavosertib + OSI-027; first compound 0.3162 µM,0.727
NCI-H596,relative viability,Adavosertib; 0.01 µM,1.05
same,relative viability,Adavosertib; 0.03162 µM,1.1
same,relative viability,Adavosertib; 0.1 µM,0.956
same,relative viability,Adavosertib; 0.3162 µM,0.931
same,relative viability,Nelarabine; 0.01 µM,1.05
same,relative viability,Nelarabine; 0.03162 µM,1.01
same,relative viability,Nelarabine; 0.1 µM,1
same,relative viability,Nelarabine; 0.3162 µM,0.992
same,relative viability,Nelarabine; 1 µM,1.06
same,relative viability,Nelarabine + Pemetrexed; first compound 0.01 µM,0.504
same,relative viability,Nelarabine + Pemetrexed; first compound 0.03162 µM,0.517
same,relative viability,Nelarabine + Pemetrexed; first compound 0.1 µM,0.574
same,relative viability,Nelarabine + Pemetrexed; first compound 0.3162 µM,0.492
same,relative viability,Nelarabine + Pemetrexed; first compound 1 µM,0.491
same,relative viability,Adavosertib + OSI-027; first compound 0.01 µM,0.784
same,relative viability,Adavosertib + OSI-027; first compound 0.03162 µM,0.914
same,relative viability,Adavosertib + OSI-027; first compound 0.1 µM,0.752
same,relative viability,Adavosertib + OSI-027; first compound 0.3162 µM,0.732
NCI-H1944,relative viability,Adavosertib; 0.01 µM,0.953
same,relative viability,Adavosertib; 0.03162 µM,0.926
same,relative viability,Adavosertib; 0.1 µM,0.959
same,relative viability,Adavosertib; 0.3162 µM,0.807
same,relative viability,Nelarabine; 0.01 µM,1.15
same,relative viability,Nelarabine; 0.03162 µM,0.984
same,relative viability,Nelarabine; 0.1 µM,1
same,relative viability,Nelarabine; 0.3162 µM,0.987
same,relative viability,Nelarabine; 1 µM,0.869
same,relative viability,Nelarabine + Pemetrexed; first compound 0.01 µM,0.659
same,relative viability,Nelarabine + Pemetrexed; first compound 0.03162 µM,0.584
same,relative viability,Nelarabine + Pemetrexed; first compound 0.1 µM,0.589
same,relative viability,Nelarabine + Pemetrexed; first compound 0.3162 µM,0.617
same,relative viability,Nelarabine + Pemetrexed; first compound 1 µM,0.61
same,relative viability,Adavosertib + OSI-027; first compound 0.01 µM,0.378
same,relative viability,Adavosertib + OSI-027; first compound 0.03162 µM,0.429
same,relative viability,Adavosertib + OSI-027; first compound 0.1 µM,0.394
same,relative viability,Adavosertib + OSI-027; first compound 0.3162 µM,0.402
